From patent US20250049676A1, “ANTIMICROBIAL SYSTEM WITH INDOLE ALKALOID AND PHENOLIC ACID AND COMPOSITIONS COMPRISING THEM” (Conopco, Inc., d/b/a UNILEVER, priority 2021, published 2025) come the findings set out here.

The test system of assay [1] is Enterobacter gergoviae ATCC 33028. Briefly: Liquid broth assay (MIC and checkerboard), Enterobacter gergoviae. Type of assay: cell-based. Particulars: for MIC: Pluralibacter gergoviae, read-out: minimal inhibitory concentration (MIC); for concentration needed in combination to achieve the inhibitory effect: gramine with syringic acid, concentration of the named component in the mixture. The text has this: (§1) Naturally derived antimicrobial systems were made, as shown below by combining the indole alkaloid and phenolic acid. Two pools were set up and each pool contained 1 organism. The strains involved were Enterobacter gergoviae ATCC 33028 of the family Pluralibacter gergoviae, a Gram-negative and Aspergillus brasiliensis ATCC 16404. FIC test range was 16 times greater than the projected MIC for each sample.
(§2) The differing behaviors of inhibitory antimicrobials in isolation and mixtures have been widely explored using the concept of the Fractional Concentration and Fractional Inhibitory Concentration (FIC). See for instance JRW Lambert and R Lambert, J. Appl. Microbiol 95, 734 (2003); T. Jadavji, CG Prober and R Cheung, Antibacterial Agents and Chemotherapy 26, 91 (1984), and WO 2004/006876. MIC is the minimum inhibitory concentration a component prevents visible growth of a microbe. The FC and FIC parameters can be defined as follows:
(§3) FC (Component A)=Concentration of Component A tested in the mixture/MIC (Component A tested as a single active)
(§4) FIC (component a)=MIC (component a tested in the mixture)/MIC (component a tested as a single active)
(§5) The interactions between antimicrobials can be additive, synergistic or possibly antagonistic depending on whether the efficacy of the combination is equivalent to, greater than or less than that obtained for the same total concentration of the individual components when tested alone. These relationships can be expressed mathematically by summing the fractional MIC values for all the components present in the mixture to give the “fractional inhibitory index”:
(§6) Such that: • ΣFIC greater than 0.5 corresponds to indifferent, additive or antagonistic activity • ΣFIC less than or equal to 0.5 corresponds to synergistic activity
(§7) Liquid broth assays (MIC and checkerboard) were conducted to identify the minimum concentration(s) of individual and binary combinations of natural preservation materials. A modified methodology to ISO 20776-1:2006 was utilized for the screening as follows. Stock solutions of each preservation chemical at 200 ul/cell (or well) each and 100 ul of broth were created in separate 96-well plates. Each of the two-preservation chemical/broth mixes was then combined in a third 96 well plate at varying concentrations and then inoculated with 1-5×10^6 microorganisms and incubated at 30° C. for 24 hours, after which optical densities at OD600 nm were measured.

Assay [2] has as its system Aspergillus brasiliensis ATCC 16404. The assay can be described thus: Liquid broth assay (MIC and checkerboard), Aspergillus brasiliensis. The assay is classed as cell-based. Particulars: for MIC: Aspergillus brasiliensis; for concentration needed in combination to achieve the inhibitory effect: gramine with syringic acid, concentration of the named component in the mixture.
From the text: as §1, §2, §3, §4, §5, §6, §7

Where two headings read alike, the source gives them in different places.

For the compound `CN(C)Cc1c[nH]c2ccccc12` [Gramine, 1-(1H-Indol-3-yl)-N,N-dimethylmethanamine], the MIC in assay [1] (ATCC33028, component by itself, MIC = <25% growth vs positive control, 30° C., 24 hours, OD600) is 6.25 mg/mL; in assay [2] (ATCC16404, component by itself, MIC = <25% growth vs positive control, 30° C., 24 hours, OD600, read-out: MIC), 12.5 mg/mL. Also, the “concentration needed in combination to achieve the inhibitory effect” value in assay [1] was 0.098 mg/mL; in assay [2], 1,563 mg/ml.
Turning to `COc1cc(C(=O)O)cc(OC)c1O` [Syringic Acid, 4-Hydroxy-3,5-dimethoxybenzoic acid], the MIC was more than 50 mg/mL in assay [1] (ATCC33028, 24 h) and more than 50 mg/mL in assay [2] (ATCC16404, 24 h). Also, the “concentration needed in combination to achieve the inhibitory effect” value in assay [1] was found to be 0.781 mg/mL; in assay [2], 6.25 mg/mL.
